Values after ≈ are worked out from the molar mass of the structure shown.
What was measured:
C neoformans I = assay: MIC determination (NCCLS broth method); type: cell-based, Cryptococcus neoformans; settings: Cryptococcus neoformans, read-out: Minimum Inhibitory Concentration (MIC)
From the text: (§1) The in-vitro evaluation of the antifungal activity of the compounds can be performed by determining the minimum inhibitory concentration (MIC) as shown in Table 1 which is the concentration of the test compound in Rosewell Park Memorial Institute (RPMI) 1640 liquid medium buffered with 3-(Morpholino)propanesulphonic acid (MOPS) to pH 7, at which there is significant inhibition of the particular fungi. In practice the National Committee for Clinical Laboratory Standard (NCCLS) M27A document for Candida and Cryptococcus and M38P for Aspergillus was used to determine the MIC against yeast and filamentous fungi with suitable modifications for dermatophytes to other filamentous fungi. Three quality control strains were included each time the MIC were determined and readings recorded only when the Quality Control results fell into the acceptable range. After MIC results had been recorded, 100 μl from each of the well showing no growth was spread over Sabouraud Dextrose Agar (SDA) to determine the minimum fungicidal concentration (MFC) as shown in Table 2.

C neoformans M-106 = assay: MIC determination (NCCLS broth method); type: cell-based, Cryptococcus neoformans; settings: Cryptococcus neoformans, M106, read-out: Minimum Inhibitory Concentration (MIC)
From the text: as §1

Mucor (Ceylon) [1] = assay: MIC determination (NCCLS broth method); type: cell-based; settings: read-out: Minimum Inhibitory Concentration (MIC)
From the text: as §1

A flavus E3 - 1044 [2] = assay: MIC determination (NCCLS broth method); type: cell-based; settings: read-out: Minimum Inhibitory Concentration (MIC)
From the text: as §1

A flavus P3 - 1041 [3] = assay: MIC determination (NCCLS broth method); type: cell-based; settings: read-out: Minimum Inhibitory Concentration (MIC)
From the text: as §1

C glabrata 90030 = assay: MIC determination (NCCLS broth method); type: cell-based; settings: read-out: Minimum Inhibitory Concentration (MIC)
From the text: as §1

A fumigatus 1008 = assay: MFC determination (subculture on Sabouraud Dextrose Agar); type: cell-based, Aspergillus fumigatus; settings: Aspergillus fumigatus, read-out: Minimum Fungicidal Concentration (MFC)
From the text: as §1

A fumigatus SI-1 - 1019 = assay: as above; type: cell-based, Aspergillus fumigatus; settings: Aspergillus fumigatus, SI11019, read-out: Minimum Fungicidal Concentration (MFC)
From the text: as §1

P variotii 22319 [4] = assay: MIC determination (NCCLS broth method); type: cell-based, Paecillomyces variotii; settings: read-out: Minimum Inhibitory Concentration (MIC)
From the text: as §1

Penicillium 31620 = assay: MFC determination (subculture on Sabouraud Dextrose Agar); type: cell-based; settings: read-out: Minimum Fungicidal Concentration (MFC)
From the text: as §1

Fusarium (Ceylon) = assay: as above; type: cell-based; settings: read-out: Minimum Fungicidal Concentration (MFC)
From the text: as §1

C krusei 6258 = assay: as above; type: cell-based; settings: read-out: Minimum Fungicidal Concentration (MFC)
From the text: as §1

C parapsilosis 22019 = assay: as above; type: cell-based; settings: read-out: Minimum Fungicidal Concentration (MFC)
From the text: as §1

Penicillium H - 1048 = assay: as above; type: cell-based; settings: H1048, read-out: Minimum Fungicidal Concentration (MFC)
From the text: as §1

Penicillium 1641 = assay: as above; type: cell-based; settings: read-out: Minimum Fungicidal Concentration (MFC)
From the text: as §1

A niger P1 - 1046 = assay: as above; type: cell-based; settings: read-out: Minimum Fungicidal Concentration (MFC)
From the text: as §1

A flavus E4 - 1042 = assay: as above; type: cell-based; settings: read-out: Minimum Fungicidal Concentration (MFC)
From the text: as §1

Mucor (Ceylon) [5] = assay: as above; type: cell-based; settings: read-out: Minimum Fungicidal Concentration (MFC)
From the text: as §1

A flavus E3 - 1044 [6] = assay: as above; type: cell-based; settings: read-out: Minimum Fungicidal Concentration (MFC)
From the text: as §1

Rhizopus (Ceylon) = assay: as above; type: cell-based; settings: read-out: Minimum Fungicidal Concentration (MFC)
From the text: as §1

A flavus P3 - 1041 [7] = assay: as above; type: cell-based; settings: read-out: Minimum Fungicidal Concentration (MFC)
From the text: as §1

Penicillium 2306 = assay: as above; type: cell-based; settings: read-out: Minimum Fungicidal Concentration (MFC)
From the text: as §1

Rhizopus 1052 = assay: as above; type: cell-based; settings: read-out: Minimum Fungicidal Concentration (MFC)
From the text: as §1

Fusarium 18270 = assay: as above; type: cell-based; settings: Fusarium, 18270, read-out: Minimum Fungicidal Concentration (MFC)
From the text: as §1

Alternaria 1051 = assay: as above; type: cell-based; settings: read-out: Minimum Fungicidal Concentration (MFC)
From the text: as §1

Penicillium 2548 = assay: as above; type: cell-based; settings: read-out: Minimum Fungicidal Concentration (MFC)
From the text: as §1

A flavus P2 - 1045 = assay: as above; type: cell-based; settings: read-out: Minimum Fungicidal Concentration (MFC)
From the text: as §1

A niger E5 - 1047 = assay: as above; type: cell-based; settings: read-out: Minimum Fungicidal Concentration (MFC)
From the text: as §1

Fusarium 29600 = assay: as above; type: cell-based; settings: Fusarium, 29600, read-out: Minimum Fungicidal Concentration (MFC)
From the text: as §1

Penicillium I - 1049 = assay: as above; type: cell-based; settings: I1049, read-out: Minimum Fungicidal Concentration (MFC)
From the text: as §1

Penicillium 191 = assay: as above; type: cell-based; settings: read-out: Minimum Fungicidal Concentration (MFC)
From the text: as §1

P variotii 22319 [8] = assay: as above; type: cell-based, Paecillomyces variotii; settings: read-out: Minimum Fungicidal Concentration (MFC)
From the text: as §1

Fusarium spp. isolates = assay: Comparative in vitro MIC, isolate panel; type: cell-based
Rhizoupus spp. isolates = assay: Comparative in vitro MIC, isolate panel; type: cell-based
All Candida isolates = assay: Comparative in vitro MIC, isolate panel; type: cell-based
[9] = system: Aspergillus fumigatus isolates; assay: Comparative in vitro MIC, isolate panel; type: cell-based
All fungal pathogens = assay: Comparative in vitro MIC, isolate panel; type: cell-based
All Filamentous isolates = assay: Comparative in vitro MIC, isolate panel; type: cell-based
[10] = system: Penicillium spp. isolates; assay: Comparative in vitro MIC, isolate panel; type: cell-based

CCC(C)n1ncn(-c2ccc(N3CCN(c4ccc(OCC5COC(Cn6cncn6)(c6ccc(Cl)cc6Cl)O5)cc4)CC3)cc2)c1=O (centres unmarked) [Itraconazole]
MIC (C neoformans I): 0.03 µg/mL (≈ 0.0425 µM) | MIC (C neoformans M-106): 0.03 µg/mL (≈ 0.0425 µM) | MIC (Mucor (Ceylon) [1]): 0.125 µg/mL (≈ 0.177 µM) | MIC (A flavus E3 - 1044 [2]): 0.03 µg/mL (≈ 0.0425 µM) | MIC (A flavus P3 - 1041 [3]): 0.06 µg/mL (≈ 0.085 µM) | MIC (C glabrata 90030): 0.5 µg/mL (≈ 0.709 µM) | MFC (A fumigatus 1008): 0.06 µg/mL (≈ 0.085 µM) | MFC (A fumigatus SI-1 - 1019): 0.25 µg/mL (≈ 0.354 µM) | MIC (P variotii 22319 [4]): 0.016 µg/mL (≈ 0.0227 µM) | MFC (Penicillium 31620): 1 µg/mL (≈ 1.42 µM) | MFC (Fusarium (Ceylon)): > 128 µg/mL | MFC (C krusei 6258): 64 µg/mL (≈ 90.7 µM) | MFC (C parapsilosis 22019): 8 µg/mL (≈ 11.3 µM) | MFC (Penicillium H - 1048): > 128 µg/mL | MFC (Penicillium 1641): 0.06 µg/mL (≈ 0.085 µM) | MFC (A niger P1 - 1046): 0.25 µg/mL (≈ 0.354 µM) | MFC (A flavus E4 - 1042): 0.125 µg/mL (≈ 0.177 µM) | MFC (Mucor (Ceylon) [5]): > 128 µg/mL | MFC (A flavus E3 - 1044 [6]): 0.03 µg/mL (≈ 0.0425 µM) | MFC (Rhizopus (Ceylon)): 128 µg/mL (≈ 181 µM) | MFC (A flavus P3 - 1041 [7]): 0.06 µg/mL (≈ 0.085 µM) | MFC (Penicillium 2306): 16 µg/mL (≈ 22.7 µM) | MFC (Rhizopus 1052): 8 µg/mL (≈ 11.3 µM) | MFC (Fusarium 18270): 128 µg/mL (≈ 181 µM) | MFC (Alternaria 1051): 32 µg/mL (≈ 45.3 µM) | MFC (Penicillium 2548): 0.06 µg/mL (≈ 0.085 µM) | MFC (A flavus P2 - 1045): 0.25 µg/mL (≈ 0.354 µM) | MFC (A niger E5 - 1047): 0.125 µg/mL (≈ 0.177 µM) | MFC (Fusarium 29600): > 128 µg/mL | MFC (Penicillium I - 1049): > 128 µg/mL | MFC (Penicillium 191): 0.06 µg/mL (≈ 0.085 µM) | MFC (P variotii 22319 [8]): 0.06 µg/mL (≈ 0.085 µM) | MIC (Fusarium spp. isolates): 90.5 µg/mL (≈ 128 µM) | MIC50 (Fusarium spp. isolates; read-out: MIC50): 64 µg/mL (≈ 90.7 µM) | MIC90 (Fusarium spp. isolates; read-out: MIC90): 256 µg/mL (≈ 363 µM) | MIC (Rhizoupus spp. isolates): 32 µg/mL (≈ 45.3 µM) | MIC50 (Rhizoupus spp. isolates; read-out: MIC50): 16 µg/mL (≈ 22.7 µM) | MIC90 (Rhizoupus spp. isolates; read-out: MIC90): 64 µg/mL (≈ 90.7 µM) | MIC (All Candida isolates): 0.1 µg/mL (≈ 0.142 µM) | MIC50 (All Candida isolates; read-out: MIC50): 0.25 µg/mL (≈ 0.354 µM) | MIC90 (All Candida isolates; read-out: MIC90): 0.5 µg/mL (≈ 0.709 µM) | MIC [9]: 0.181 µg/mL (≈ 0.257 µM) | MIC50 ([9]; read-out: MIC50): 0.25 µg/mL (≈ 0.354 µM) | MIC90 ([9]; read-out: MIC90): 0.5 µg/mL (≈ 0.709 µM) | MIC (All fungal pathogens): 0.437 µg/mL (≈ 0.619 µM) | MIC50 (All fungal pathogens; read-out: MIC50): 0.19 µg/mL (≈ 0.269 µM) | MIC90 (All fungal pathogens; read-out: MIC90): 256 µg/mL (≈ 363 µM) | MIC (All Filamentous isolates): 0.6 µg/mL (≈ 0.85 µM) | MIC50 (All Filamentous isolates; read-out: MIC50): 0.25 µg/mL (≈ 0.354 µM) | MIC90 (All Filamentous isolates; read-out: MIC90): 256 µg/mL (≈ 363 µM) | MIC [10]: 0.922 µg/mL (≈ 1.31 µM) | MIC50 ([10]; read-out: MIC50): 0.5 µg/mL (≈ 0.709 µM) | MIC90 ([10]; read-out: MIC90): 256 µg/mL (≈ 363 µM)
